Test results from patent publication US20240300932A1, “N-PHENYLIMINE DERIVATIVE AND PREPARATION METHOD AND USE THEREOF” (Guizhou University, priority 2023, published 2024).

Columns and labels:
Experiment in all cases: Post-emergence herbicidal activity test (stem and leaf spray, pot culture)
Assay type in all cases: in vivo
Conditions in all cases: 3 weeks after spraying
Setaria viridis = system: Setaria viridis
Procedure, shortened: (§1)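 Seeds soaked 6 h at 25 °C, germinated at 28 °C, sown in loam pots and thinned to 10 plants/pot. At 2–3 leaves, plants received a single spray-tower application of 10, 5 or 2.5 g/mu. Fresh-weight control was graded 0–5 after 3 weeks.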

Echinochloa crusgalli = system: Echinochloa crusgalli
Procedure, shortened: as §1

Portulaca oleracea = system: Portulaca oleracea
Procedure, shortened: as §1

Amaranthus retroflexus = system: Amaranthus retroflexus
Procedure, shortened: as §1

Abutilon theophrasti = system: Abutilon theophrasti
Procedure, shortened: as §1

Trifoliumre pensL. = system: Trifoliumre pensL.
Procedure, shortened: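 Pot-grown weeds in loam (pH 7), greenhouse at 20–30 °C, sprayed once post-emergence at the 2–3-leaf stage. Compound in acetone with Tween 80 plus methyl oleate oil (1.5 L/ha), applied at 10, 5 and 2.5 g/mu by spray tower. Effect scored 3 weeks after spraying, averaged over three repeats.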

Cc1cc(F)ccc1-c1noc(COc2cc(N3C(=O)C4=C(CCCC4)C3=O)c(F)cc2Cl)n1 [Compound A23]
Post-emergence herbicidal activity, S. viridis (grade) (Setaria viridis; dosage 2.5 g/mu): 2 (Grade 2: the growth control rate is greater than or equal to 20% and less than 40%) | Post-emergence herbicidal activity, S. viridis (grade) (Setaria viridis; dosage 5 g/mu): 3 (Grade 3: the growth control rate is greater than or equal to 40% and less than 60%) | Post-emergence herbicidal activity, S. viridis (grade) (Setaria viridis; dosage 10 g/mu): 4 (Grade 4: the growth control rate is greater than or equal to 60% and less than 85%) | Post-emergence herbicidal activity, E. crusgalli (grade) (Echinochloa crusgalli; dosage 2.5 g/mu): 1 (Grade 1: the growth control rate is greater than or equal to 5% and less than 20%) | Post-emergence herbicidal activity, E. crusgalli (grade) (Echinochloa crusgalli; dosage 5 g/mu): 2 (Grade 2: the growth control rate is greater than or equal to 20% and less than 40%) | Post-emergence herbicidal activity, E. crusgalli (grade) (Echinochloa crusgalli; dosage 10 g/mu): 3 (Grade 3: the growth control rate is greater than or equal to 40% and less than 60%) | Post-emergence herbicidal activity, P. oleracea (grade) (Portulaca oleracea; dosage 2.5 g/mu): 4 (Grade 4: the growth control rate is greater than or equal to 60% and less than 85%) | Post-emergence herbicidal activity, P. oleracea (grade) (Portulaca oleracea; dosage 5 g/mu): 5 (Grade 5: the growth control rate is greater than or equal to 85%) | Post-emergence herbicidal activity, P. oleracea (grade) (Portulaca oleracea; dosage 10 g/mu): 5 (Grade 5: the growth control rate is greater than or equal to 85%) | Post-emergence herbicidal activity, A. retroflexus (grade) (Amaranthus retroflexus; dosage 2.5 g/mu): 5 (Grade 5: the growth control rate is greater than or equal to 85%) | Post-emergence herbicidal activity, A. retroflexus (grade) (Amaranthus retroflexus; dosage 5 g/mu): 5 (Grade 5: the growth control rate is greater than or equal to 85%) | Post-emergence herbicidal activity, A. retroflexus (grade) (Amaranthus retroflexus; dosage 10 g/mu): 5 (Grade 5: the growth control rate is greater than or equal to 85%) | Post-emergence herbicidal activity, A. theophrasti (grade) (Abutilon theophrasti; dosage 2.5 g/mu): 5 (Grade 5: the growth control rate is greater than or equal to 85%) | Post-emergence herbicidal activity, A. theophrasti (grade) (Abutilon theophrasti; dosage 5 g/mu): 5 (Grade 5: the growth control rate is greater than or equal to 85%) | Post-emergence herbicidal activity, A. theophrasti (grade) (Abutilon theophrasti; dosage 10 g/mu): 5 (Grade 5: the growth control rate is greater than or equal to 85%) | Post-emergence herbicidal activity, Trifoliumre pensL. (grade) (Trifoliumre pensL.; dosage 2.5 g/mu): 4 (Grade 4: the growth control rate is greater than or equal to 60% and less than 85%) | Post-emergence herbicidal activity, Trifoliumre pensL. (grade) (Trifoliumre pensL.; dosage 5 g/mu): 5 (Grade 5: the growth control rate is greater than or equal to 85%) | Post-emergence herbicidal activity, Trifoliumre pensL. (grade) (Trifoliumre pensL.; dosage 10 g/mu): 5 (Grade 5: the growth control rate is greater than or equal to 85%)
